Legend:
[1] = test system: T1, rat NL-A1AR; test: NanoBRET dissociation kinetics, rat NL-A1AR HEK293 cells; assay type: binding; settings: rat NL-A1AR HEK293 cells prelabeled with 250 nM, 10 μM DPCPX
T1 construct: expressed in transfected cells
Description: Figure 3 Molecular pharmacology and biochemical characterization of 11 and 12. NanoBRET ligand-binding data were measured in HEK293 cells stably expressing the human NL-A1AR (A–C) or rat NL-A1AR (D–F). […] Data were normalized to maximal BRET signals in the absence of unlabeled competing ligands (total binding, TB). (C, F) NanoBRET dissociation kinetics experiments with 11 (SulfoCy5) performed in human and rat NL-A1AR HEK293T cells, respectively. Cells were treated with 250 nM 11 (SulfoCy5, lilac open circles) for 5 h and CA200645 (black open triangles) for 2 h. […] Each data point represents the combined mean ± SEM from n = 5 (A, C), n = 4 (B, D), and n = 3 (E, F) experiments, each one performed in triplicate. (G) HEK293G cells stably expressing TS-SNAP-A1AR were treated with 300 nM 11 or 130 nM 12 in serum-free media for 2 h at 37 °C and 5% CO2. For samples treated with compound 12, the labeling solution was removed and immediately replaced with 10 mL of serum-free media containing 1 μM Met-Tet-Cy5 and incubated at 37 °C and 5% CO2 for a further 15 min. Untreated cells were used as a control. TS-SNAP-A1AR was purified and separated on an SDS-PAGEgel gel, and direct Cy5 fluorescence was visualized using in-gel fluorescence. The gel shown is representative of three independent experiments. […]
37 °C for kinetic binding experiments. Emissions were read at 420 nm (80 nm bandpass; […]

[2] = test system: nontransfected HEK293 cells; test: Confocal assessment of non-specific labelling in non-transfected HEK293T cells; assay type: cell-based, human; settings: 125 nM; cells do not express the A1AR
Description: Having investigated the molecular pharmacology of 11 and 12 in a series of in vitro assays, we sought to apply the LD probes for studying A1AR localization and dynamics in living cells. To this end, LD probes 11 and 12 were initially used in confocal microscopy studies to test their ability to label and allow visualization of the SNAP-hA1AR in living HEK293T cells (Figure 6). […] With both probes, the fluorescence labeling colocalized with SNAP-hA1AR labeled with AF488 (Figure 6A,C top frames).
Supplementary Figures: Pharmacology
Figure S1. Fluorescence spectra of SulfoCy5-conjugated methyltetrazine in the absence or in the presence of probe 12 (PEG-TCO). “Turn-on” type reaction of tetrazine (Met-TetSulfoCy5) with PEGylated trans-cyclooctene (PEG-TCO)-labelled 12. Fluorescence excitation and emission spectra measured in HBSS with the corresponding tetrazineSulfoCy5 [100 nM] without, then with 12 (PEG-TCO) [1 µM] (allowed to react for 10 min prior detection). Exc maxima (Met-TetSulfoCy5 + PEG-TCO) = 1.80-fold increase compared to Met-TetSulfoCy5 alone; Em maxima (Met-TetSulfoCy5 + TCO) = 1.40-fold; Excitation and emission fluorescence spectra (1 nm step width) were measured were recorded on a CLARIOstar plate reader (BMG Labtech).
Figure S2. Assessment of 11 non-specific labelling performed in non-transfected live HEK293T cells. Left hand frame corresponds to SulfoCy5 channel. […]

[3] = target: T2, NL-hA2AAR (Homo sapiens, UniProt P29274); test: NanoBRET competition ligand-binding assay (CA200645 tracer), NL-hA2AAR; settings: CA200645 (25 nM) tracer, transient HEK293T, mean ± SEM; read-out: affinity values pKi, NL-hA2AAR (converted)
T2 construct: expressed in transfected cells; host or cells: HEK293T, transient transfection (FuGENE)
T2 sequence (P29274 whole entry): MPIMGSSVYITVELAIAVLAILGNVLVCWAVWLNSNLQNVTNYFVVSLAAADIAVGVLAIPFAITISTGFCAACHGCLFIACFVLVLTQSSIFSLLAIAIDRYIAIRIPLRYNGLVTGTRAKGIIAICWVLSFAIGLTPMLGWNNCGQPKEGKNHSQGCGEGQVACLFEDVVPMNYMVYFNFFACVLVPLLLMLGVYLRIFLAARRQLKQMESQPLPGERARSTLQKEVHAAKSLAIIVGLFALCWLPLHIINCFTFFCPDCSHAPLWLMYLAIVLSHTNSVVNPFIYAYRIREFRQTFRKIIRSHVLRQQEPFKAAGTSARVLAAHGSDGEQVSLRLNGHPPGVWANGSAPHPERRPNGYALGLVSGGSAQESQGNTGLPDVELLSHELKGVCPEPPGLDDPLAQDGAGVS

## CCCCn1c(=O)c2[nH]c(C34CCC(C(=O)NCCNC(=O)CCNC(=O)c5ccc(OC(=O)CCCCC[N+]6=C(/C=C/C=C/C=C7/N(C)c8ccc(S(=O)(=O)O)cc8C7(C)C)C(C)(C)c7cc(S(=O)(=O)[O-])ccc76)c(F)c5)(CC3)CC4)nc2n(CCCC)c1=O [Compound 11, 1-(6-(4-((3-((2-(4-(1,3-Dibutyl-2,6-dioxo-2,3,6,7-tetrahydro-1H-purin-8-yl)bicyclo[2.2.2]octane-1-carboxamido)ethyl)amino)-3-oxopropyl)carbamoyl)-2-fluorophenoxy)-6-oxohexyl)-3,3-dimethyl-2-((1E,3E)-5-((E)-1,3,3-trimethyl-5-sulfoindolin-2-ylidene)penta-1,3-dien-1-yl)-3H-indol-1-ium-5-sulfonate]
[1]
  ability to covalently transfer the fluorophore to the A1AR (dissociation experiment): could be retained across species
[2]
  fluorescent signal in nontransfected HEK293 cells: did not produce any detectable fluorescent signal

## CCCCn1c(=O)c2[nH]c(C34CCC(C(=O)NCCNC(=O)CCNC(=O)c5ccc(OC(=O)CCC(=O)NCCOCCOCCNC(=O)O[C@H]6CC/C=C/CCC6)c(F)c5)(CC3)CC4)nc2n(CCCC)c1=O [Compound 12, 4-((3-((2-(4-(1,3-Dibutyl-2,6-dioxo-2,3,6,7-tetrahydro-1H-purin-8-yl)bicyclo[2.2.2]octane-1-carboxamido)ethyl)amino)-3-oxopropyl)carbamoyl)-2-fluorophenyl (R,E)-1-(Cyclooct-4-en-1-yloxy)-1,12-dioxo-5,8-dioxa-2,11-diazapentadecan-15-oate]
[3]
  Ki: 1.38 µM

— PMC11284787, “Ligand-Directed Labeling of the Adenosine A1 Receptor in Living Cells” (Journal of Medicinal Chemistry, 2024)
